# Results as given in paper PMC8957246, “Synthesis and diverse biological activity profile of triethylammonium isatin-3-hydrazones” (ADMET & DMPK, 2022).
# Structures can show the parent of a compound that is named as a salt. Marks after values point to notes of the source that are not given here.
# Tests used:
# [1] = test system: platelets (ADP-induced aggregation); assay: Platelet aggregation (Born method), ADP-induced; format: cell-based; conditions: Homo sapiens, ADP 20 μg/mL, final concentration 2×10^–3 mol/L, median (25-75 percentiles), read-out: Platelets aggregation, % of control, ADP
# Description: (§1) The in vitro experiments were performed using the blood of healthy male donors aged 18-24 years (total 54 donors). The study was approved by the Ethics Committee of Federal State Budgetary Educational Institution of Higher Education at the Bashkir State Medical University of the Ministry of Health of Russian Federation (No.2 dated 17.10.2012). Informed consent was obtained from all participants before blood sampling. The blood was collected from the cubital vein using the system of vacuum blood collection BD Vacutainer® (Becton, Dickinson and Company, USA). A 3.8 % sodium citrate solution in a 9:1 ratio was used as a venous blood stabiliser. The study of the effect on platelet aggregation was performed using the Born method using the aggregometer «AT-02» (SPC Medtech, Russia). The assessment of antiplatelet activity of the studied compounds and reference preparations was started with the final concentration of 2×10^–3 mol/L. Adenosine diphosphate (ADP; 20 μg/mL) and collagen (5 mg/mL) manufactured by Tehnologia-Standart Company, Russia, were used as inducers of aggregation. The study on the anticoagulant activity was performed by standard recognised clotting tests using the optical two-channel automatic analyser of blood coagulation Solar CGL 2110 (CJSC SOLAR, Belarus). The following parameters were studied: activated partial thromboplastin time (APTT), prothrombin time (PT) and fibrinogen concentrations according to the Clauss method. The determination of anticoagulant activity of the studied compounds and reference preparation was performed in a concentration of 5×10^–4 g/mL using the reagents manufactured by Tehnologia-Standart Company (Barnaul, Russia). The results of the study were processed using the statistical package Statistica 10.0 (StatSoft Inc, USA). The Shapiro–Wilk’s test was used to check the normality of actual data distribution. The form of distribution of the data obtained differed from the normal one; therefore, non-parametric methods were used for further analysis. The data were presented as medians and 25 and 75 percentiles. Analysis of variance was conducted using Kruskal–Wallis test. A p value of 0.05 was considered statistically significant.
# [2] = test system: platelets (collagen-induced aggregation); assay: Platelet aggregation (Born method), collagen-induced; format: cell-based; conditions: Homo sapiens, collagen 5 mg/mL, final concentration 2×10^–3 mol/L, median (25-75 percentiles), read-out: Platelets aggregation, % of control, Collagen
# Description: as §1
# Micrococcus luteus B-109 = assay: Bactericidal activity, agar diffusion, M. luteus; format: cell-based
# Source text: (§2) Plant pathogenic bacterial strains Micrococcus luteus B-109, Pectobacterium atrosepticum 1043, Pectobacterium carotovorum subsp. carotovorum MI, Pseudomonas fluorescens EL-2.1, and Xanthomonas campestris B-610 and fungal strain Fusarium oxysporum IBPPM 543 were obtained from the specialized scientific culture collection of IBPPM RAS (WFCC no. 975, WDCM no. 1021) (CM IBPPM). Pathogenic fungus Phytophthora cactorum VKM F-985 provided by the All-Russian Collection of Microorganisms (VKM) and deposited at A.E. Favorsky Irkutsk Institute of Chemistry, SB RAS, was also used as test organism. Bacteria M. luteus, P. carotovorum subsp. carotovorum, P. atrosepticum, and Ps. fluorescens were grown in meat-peptone medium (BP), and X. campestris was grown in the medium with glucose, yeast extract, and calcium carbonate (GYCa). Solid media contained Bacto agar (18 g/L); pH was adjusted to 7.2-7.4. All bacterial cultures were grown at 28°C. The mycelial cultures of F. oxysporum and P. cactorum were grown on a glucose-peptone-yeast (GPY) nutrient medium at 27 °C. For inoculum preparation, both fungal strains were initially grown on the agar GPY in Petri dishes and then transferred into the seed medium by punching out 5 mm of the agar plate culture with a self-designed cutter.
# (§3) Antibacterial and antifungal activities of the compounds were explored using the agar diffusion method and the technique of a phytopathogen radial growth inhibition. Method of diffusion in agar (measuring the diameter of growth inhibition zones) was used for determining the bactericidal activity. The 6-mm wells were made in ager medium (GYCa for Xanthomonas campestris or BP for other bacteria). Bacterial suspensions were distributed over the agar surface, and the tested compound's solution (150 μl) was added to each well. The width of growth inhibition zones around the wells was determined after incubation for 36-40 h.
# (§4) The solutions of tested compounds were prepared with a concentration of 2 mmol/l (stock solution). For comparison, test compounds were also commonly applied disinfecting agents and antibiotics.
# [3] = test system: Pectobacterium atrosepticum 1043; assay: Bactericidal activity, agar diffusion, P. atrosepticum; format: cell-based
# Source text: as §2, §3, §4
# [4] = test system: Pectobacterium carotovorum subsp. carotovorum MI; assay: Bactericidal activity, agar diffusion, P. carotovorum; format: cell-based
# Source text: as §2, §3, §4
# [5] = test system: Pseudomonas fluorescens EL-2.1; assay: Bactericidal activity, agar diffusion, Ps. fluorescens; format: cell-based
# Source text: as §2, §3, §4
# [6] = test system: Xanthomonas campestris B-610; assay: Bactericidal activity, agar diffusion, X. campestris; format: cell-based
# Source text: as §2, §3, §4
# [7] = test system: Fusarium oxysporum IBPPM 543; assay: Fungicidal activity, radial growth inhibition, F. oxysporum; format: cell-based; conditions: for Inhibition value, I (%): C 10 μg/mL
# Source text: as §2
# (§5) For the fungicidal activity analysis, radial growth (colony diameters) of the fungi on a solid medium in the absence and in the presence of the compounds 3a,c-g solutions at various concentrations were compared. The method consisted of the following: sterile, melted and then cooled to about 60°C GPY agar medium (20.0 ml) was mixed with the precisely measured volumes of the solutions under question, and poured into a sterile Petri dish (90 mm i.d.). After solidification of GPY agar, the media were inoculated by the fungus using 10-day-old cultures of F. oxysporum or P. cactorum. The inoculation was done by transferring a 5-mm (i.d.) GPY-agar block covered with mycelium to the center of the Petri dish followed by incubation in a thermostat at 27°C. The fungicidal effect was scored by the size of mycelium colony on a Petri dish compared to the control without fungicidal admixtures to GPY agar. Each treatment was performed in at least four replicates in two independent experiments. The observation period ended when the control Petri dish was filled with mycelium (usually after 12 days). The inhibition of the phytopathogen colony growth by the compounds 3a,c-g or fludioxonil solutions was calculated as a percentage by which the mycelium radial propagation was decreased compared to the unaffected control, the latter was taken as 100 % of growth (or zero percent of inhibition). The EC50 value was calculated as the compound concentration at which the radial growth of the fungus colony was decreased by 50 % relative to the non-fungicidal control, according to the formula EC50 = 50C/I based on the approach developed e.g., in [34, 35].
# as §4
# [8] = test system: Phytophthora cactorum VKM F-985; assay: Fungicidal activity, radial growth inhibition, P. cactorum; format: cell-based; conditions: for Inhibition value, I (%): C 10 μg/mL
# Source text: as §2, §5, §4
# [9] = test system: Staphylococcus aureus ATCC 6538P FDA 209P; assay: Antimicrobial activity, serial dilution (MIC/MBC), Sa; format: cell-based; conditions: Staphylococcus aureus
# Description: (§6) The antimicrobial activity of the test compounds was determined by the serial dilution technique in Muller Hinton Broth 2 and in Sabouradu broth for fungi. The cultures used for testing included Gram-positive bacteria: Staphylococcus aureus ATCC 6538P FDA 209P, Bacillus cereus ATCC 10702 NCTC 8035, Enterococcus faecalis ATCC 29212; Gram-negative bacteria: Escherichia coli ATCC 25922, Pseudomonas aeruginosa ATCC 9027, and fungi: Trichophyton mentagrophytes var. gypseum 1773, and Candida albicans ATCC 10231; methicillin-resistant strains of S. aureus (MRSA) was obtained from hospital patients with chronic tonsillitis in the Republican Clinical Hospital (Kazan, Russia). The bacterial load was 3.0 × 10^5 cfu/ml. The fungi load was 2.0 × 10^3 cfu/ml. The results were recorded every 24 h for 5-7 days. Cultures were incubated at 37 °C. The experiment was repeated three times. […] The minimum inhibitory concentration (MIC) was defined as the minimum concentration of a compound that inhibits the growth of the corresponding test microorganism. The growth of bacteria, as well as the absence of the growth due to the bacteriostatic action of compounds, were recorded.
# (§7) Synthesized compounds were further evaluated for antimicrobial activity against test microorganisms: Staphylococcus aureus ATCC 209p (Sa), Bacillus cereus ATCC 8035 (Bc), Escherichia coli CDC F-50 (Ec), Enterococcus faecalis (Ef), Pseudomonas aeruginosa ATCC 9027, Aspergillus niger BKMF-1119, Trichophyton mentagrophytes var. gypseum 1773, and Candida albicans 855-653 including methicillin-resistant strains of S. aureus (MRSA 1 and MRSA 2). The minimum inhibitory (MIC) and minimum bactericidal (MBC) concentrations of ammonium salts were determined against these pathogens (Table 1). Due to the lack of activity of compounds 3a-g against Gram-negative bacterial strains and some fungi, the corresponding data are not shown.
# [10] = test system: Bacillus cereus ATCC 10702 NCTC 8035; assay: Antimicrobial activity, serial dilution (MIC/MBC), Bc; format: cell-based; conditions: Bacillus cereus
# Description: as §6, §7
# [11] = test system: Enterococcus faecalis ATCC 29212; assay: Antimicrobial activity, serial dilution (MIC/MBC), Ef; format: cell-based; conditions: ATCC29212
# Description: as §6, §7
# [12] = test system: methicillin-resistant strains of S. aureus (MRSA-1); assay: Antimicrobial activity, serial dilution (MIC/MBC), MRSA-1; format: cell-based; conditions: Staphylococcus aureus
# Description: as §6, §7
# [13] = test system: methicillin-resistant strains of S. aureus (MRSA-2); assay: Antimicrobial activity, serial dilution (MIC/MBC), MRSA-2; format: cell-based; conditions: Staphylococcus aureus
# Description: as §6, §7
# [14] = test system: activated partial thromboplastin time (intrinsic coagulation pathway); assay: Anticoagulant activity, clotting test APTT; design: species or system human; conditions: concentration 5×10^–4 g/mL; median (25-75 percentiles)
# Description: as §1
compound,measurement,setting,value
"CC[N+](CC)(CC)CC(=O)N/N=C1\C(=O)N(Cc2cc(C(C)(C)C)c(O)c(C(C)(C)C)c2)c2ccccc21 (as salt: bromide) [Compound 3a, 2-(2-(1-(3,5-Di-tert-butyl-4-hydroxybenzyl)-2-oxoindolin-3-ylidene)hydrazinyl)-N,N,N-triethyl-2-oxoethanammonium bromide]",melting point,,212 °C
"CC[N+](CC)(CC)CC(=O)N/N=C1\C(=O)N(Cc2cc(C(C)(C)C)c(O)c(C(C)(C)C)c2)c2c(C)cccc21 (as salt: bromide) [Compound 3b, 2-(2-(1-(3,5-Di-tert-butyl-4-hydroxybenzyl)-7-methyl-2-oxoindolin-3-ylidene)hydrazinyl)-N,N,N-triethyl-2-oxoethanammonium bromide]",melting point,,154 °C
"CCc1cccc2c1N(Cc1cc(C(C)(C)C)c(O)c(C(C)(C)C)c1)C(=O)/C2=N\NC(=O)C[N+](CC)(CC)CC (as salt: bromide) [Compound 3c, 2-(2-(1-(3,5-Di-tert-butyl-4-hydroxybenzyl)-7-ethyl-2-oxoindolin-3-ylidene)hydrazinyl)-N,N,N-triethyl-2-oxoethanammonium bromide]",melting point,,163 °C
"CC[N+](CC)(CC)CC(=O)N/N=C1\C(=O)N(Cc2cc(C(C)(C)C)c(O)c(C(C)(C)C)c2)c2cccc(Br)c21 (as salt: bromide) [Compound 3e, 2-(2-(1-(3,5-Di-tert-butyl-4-hydroxybenzyl)-4-bromo-2-oxoindolin-3-ylidene)hydrazinyl)-N,N,N-triethyl-2-oxoethanammonium bromide]",melting point,,194 °C
"CC(=O)Oc1ccccc1C(=O)O [Acetylsalicylic acid, reference compound]",inhibition at 2000 µM,[1],13.7%
same,inhibition at 2000 µM,[2],14.7%
"N=C(NCCCCCCNC(=N)NC(=N)Nc1ccc(Cl)cc1)NC(=N)Nc1ccc(Cl)cc1 [Chlorohexidin, reference compound]",width of the inhibition zone,Micrococcus luteus B-109; 500 μg/mL,5 mm
same,width of the inhibition zone,[3]; 500 μg/mL,4 mm
same,width of the inhibition zone,[4]; 500 μg/mL,5 mm
same,width of the inhibition zone,[5]; 500 μg/mL,4 mm
same,width of the inhibition zone,[6]; 500 μg/mL,5 mm
"N#Cc1c[nH]cc1-c1cccc2c1OC(F)(F)O2 [Fludioxonil, reference compound]","Inhibition value, I (%)",[7]; age of the fungus 3 days,38%
same,"Inhibition value, I (%)",[7]; age of the fungus 5 days,23%
same,"Inhibition value, I (%)",[7]; age of the fungus 7 days,6%
same,"Inhibition value, I (%)",[7]; age of the fungus 9 days,4%
same,EC50,"[7]; Fusarium oxysporum, IBPPM543, 168 h, read-out: EC50, μg/mL at day 7",83.3 µg/mL
same,"Inhibition value, I (%)",[8]; age of the fungus 3 days,46%
same,"Inhibition value, I (%)",[8]; age of the fungus 5 days,38%
same,"Inhibition value, I (%)",[8]; age of the fungus 7 days,18%
same,"Inhibition value, I (%)",[8]; age of the fungus 9 days,12%
same,"Inhibition value, I (%)",[8]; age of the fungus 12 days,9%
same,EC50,"[8]; Phytophthora cactorum, 168 h, read-out: EC50, μg/mL at day 7",27.8 µg/mL
"CCn1cc(C(=O)O)c(=O)c2cc(F)c(N3CCNCC3)cc21 [Norfloxacin, reference compound]",MIC,[9],7.5 ± 0.5 µM
same,MBC,[9]; read-out: MBC (converted),7.5 ± 0.6 µM
same,MBC,[10],24.4 ± 2.1 µM
same,MIC,[10]; read-out: MIC,24.4 ± 2.1 µM
same,MBC,[11],7.5 ± 0.6 µM
same,MIC,[11],7.5 ± 0.5 µM
same,MIC,[12],391 ± 30 µM
same,MIC,[13],30 ± 2.6 µM
same,zone of inhibition at 500 µg/mL,"Micrococcus luteus B-109; Micrococcus luteus, B109, 500 μg/mL, read-out: width of the inhibition zone",7 mm
same,zone of inhibition at 500 µg/mL,"[3]; Pectobacterium atrosepticum, 1043, 500 μg/mL, read-out: width of the inhibition zone",7 mm
same,zone of inhibition at 500 µg/mL,"[4]; Pectobacterium carotovorum, 500 μg/mL, read-out: width of the inhibition zone",8 mm
same,zone of inhibition at 500 µg/mL,"[5]; Pseudomonas fluorescens, EL2.1, 500 μg/mL, read-out: width of the inhibition zone",8 mm
same,zone of inhibition at 500 µg/mL,"[6]; Xanthomonas campestris, B610, read-out: width of the inhibition zone",7 mm
"[Na+].[O-]Cl [sodium hypochlorite, reference compound]",width of the inhibition zone,Micrococcus luteus B-109; 1000 μg/mL,2.5 mm
same,width of the inhibition zone,[3]; 1000 μg/mL,4 mm
same,width of the inhibition zone,[4]; 1000 μg/mL,3 mm
same,width of the inhibition zone,[5]; 1000 μg/mL,4 mm
same,width of the inhibition zone,[6]; 1000 μg/mL,4 mm
Heparin sodium [reference compound],"APTT, % of control",[14],+20.3 (19.7-21.4) ^** % of control
